The source made the active and inactive calls. The rule behind the calls is not given here.
Experiment: E-selectin induction blockers, endothelial cells – imaging, retest plus dose response, cell count, confirmation (AID 1288);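 note: 0% = stimulated vehicle wells and 100% = unstimulated vehicle wells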
Conditions: human endothelial cells, TNFa-induced E-selectin, imaging; at 2 µM; stronger effect = higher value

SMILES	inhibition
C=CCN1C(c2ccccc2)=CS/C1=C(\C#N)c1nnc2n1CCCCC2	34% (inactive)
NC(=S)NNc1cccc(Cl)c1	6.61% (inactive)
CCC(C)c1ccccc1OCCCCN1CCCC1 (configuration not stated)	-2.07% (inactive)
O=c1c2cccnc2[nH]c(=S)n1CCCN1CCN(c2ccc(F)cc2)CC1	1.58% (inactive)
Cc1oc(-c2cccs2)nc1CSCC(=O)N1CCC2(CC1)OCCO2	2.86% (inactive)
O=C(/C=C/c1ccccc1)N1CCC(Cc2ccccc2)CC1	9.46% (inactive)
Fc1cccc(F)c1CSc1nc2ccccc2[nH]1	3.56% (inactive)
CCOC(=O)c1c(NC(C)=O)sc2c(O)cccc12	35.6% (inactive)
O=C(Nc1nnc(-c2ccco2)s1)C1CC1	1.62% (inactive)
Nc1cccc(-n2nncc2-c2ccc(Cl)cc2)c1	18.2% (inactive)
COc1ccc2c(c1OC)C(=O)OC2c1c(O)nc(SC)n(-c2ccccc2)c1=O (configuration not stated)	4.68% (inactive)
CCOC(=O)c1c(NC(=O)CSc2nnc(CNc3ccc(C)cc3C)o2)sc(C)c1C	2.5% (inactive)
CC1CC1c1ccc(/C=C(\C#N)C(=O)Nc2ccc(Cl)cc2)o1 (configuration not stated)	7.94% (inactive)
O=C(Nc1ccccc1N1CCOCC1)c1ccc(Cl)nc1	3.97% (inactive)
CCN(CC)c1ccc(C2C(C(=O)OCCOC)=C(C)NC3=C2C(=O)CC(C)(C)C3)cc1 (configuration not stated)	-4.2% (inactive)
CC1CN(C(=O)/C(C#N)=C2\N=C(NC(=O)c3ccccc3Cl)c3ccccc32)CC(C)O1 (configuration not stated)	-0.23% (inactive)
O=C(CSc1ncnc2nc[nH]c12)Nc1ccccc1C(F)(F)F	30.5% (inactive)
C/C=C/Cn1c(N2CCCCCC2)nc2c1c(=O)[nH]c(=O)n2C	17.1% (inactive)
Cc1cc(S(=O)(=O)N2CCN(c3ccccc3O)CC2)c(C)s1	5.21% (inactive)
COc1ccc2c(c1)C1CC(C)(NC(=O)C1S(=O)(=O)c1ccc(F)cc1)O2 (configuration not stated)	28.9% (inactive)
Cc1ccc(C(=O)c2c(NC(=O)c3ccccc3C)sc(C)c2C)cc1	4.34% (inactive)
CN(C)S(=O)(=O)c1cc(NC(=O)CSc2nn(-c3ccc(Cl)cc3)c(=S)s2)ccc1Cl	-2.75% (inactive)
O=C(Nc1cccs1)Nc1c(F)c(F)c(F)c(F)c1F	1.63% (inactive)
COc1ccc(-n2nnnc2SCc2nc(N)nc(N3CCOCC3)n2)cc1	33.7% (inactive)

SMILES	inhibition
CCCCc1c(O)nc(SCC(=O)Nc2ccc3c(c2)CCC3)[nH]c1=O	14.6% (inactive)
Cc1ccc(C)c(N(CC(=O)NCCSCc2ccco2)S(C)(=O)=O)c1	6.59% (inactive)
CCOC(=O)c1ccc(NC(=S)NCC(O)c2ccccc2)cc1 (configuration not stated)	4.17% (inactive)
Cc1cc(NC(=O)CSc2nnc3c4c(C)c(C)sc4ncn23)no1	14.7% (inactive)
CS(=O)(=O)c1ccc(Cl)c(NC(=O)c2ccc3ccccc3c2)c1	4.97% (inactive)
O=C(Nc1nc(-c2ccncc2)cs1)c1ccc(S(=O)(=O)N2CCOCC2)cc1	1.3% (inactive)
Cc1nc2c(ccc3nc(NC(=O)c4ccc5c(c4)OCCO5)sc32)s1	3.48% (inactive)
O=C(c1cccs1)N(C(=O)c1cccs1)c1ccc(Br)cn1	15.4% (inactive)
COc1ccccc1Cc1nc(-c2ccncc2)no1	13.1% (inactive)
COCCCNC(=O)COc1ccc(S(=O)(=O)NCc2ccccc2)cc1Cl	7.46% (inactive)
Cc1cc([N+](=O)[O-])nn1CC(=O)Nc1sc2c(c1C(N)=O)CCCC2	18.3% (inactive)
N#CC1=C(N)Oc2cc(Nc3ccccc3)ccc2C1c1ccncc1 (configuration not stated)	4.14% (inactive)
CCC(=O)Nc1cccc(NC(=O)CSc2nnc(-c3ccc(NS(C)(=O)=O)cc3)n2C)c1	-2.9% (inactive)
N=C(N)SCc1nc2ccccc2c(=O)n1-c1ccccc1	9.67% (inactive)
CO/C([O-])=N/c1c[n+](-c2ccc(Cl)cc2)no1	26.1% (inactive)
O=S(=O)(NCC(c1ccco1)N1CCN(c2ccccc2)CC1)c1ccc(F)cc1 (configuration not stated)	6.17% (inactive)
Cn1cccc1/C=C1\C(=O)NC(=O)N(CCC2=CCCCC2)C1=O	6.01% (inactive)
CC(C)(CO)NCC(O)Cn1cc(C=O)c2ccccc21 (configuration not stated)	-5.31% (inactive)
Cc1cc(-n2nc(C)cc2C)nc(NS(=O)(=O)c2ccccc2)n1	14.8% (inactive)
CCN(CC)c1ccc(NC(=O)C2CC3CCC2C3)cc1 (configuration not stated)	24.7% (inactive)
Cc1cccc(N2CCN(c3cccc(C)c3)C2c2cccnc2)c1	5.98% (inactive)
Cc1ccc(N2C(=O)C3C4C=CC(CNC(=S)Nc5ccc(F)cc5)(O4)C3C2=O)cc1 (configuration not stated)	5.92% (inactive)
CN(C(=S)Nc1ccc(Oc2ccccc2)cc1)c1ccc(O)cc1	12.6% (inactive)
Cc1cc(N2CCCCC2)nc(NCc2ccccc2)n1	36.1% (inactive)

SMILES	inhibition
COc1ccc(NC(=O)c2cccnc2Cl)c(S(=O)(=O)N2CCOCC2)c1	6.27% (inactive)
COc1ccc(OC)c(CN2CCN(C(=O)COc3cccc(C)c3)CC2)c1	9.14% (inactive)
CN1CCN(S(=O)(=O)c2ccc(NC(=O)C3CCCO3)cc2)CC1 (configuration not stated)	13.2% (inactive)
O=c1[nH]c2cc(NCCO)c([N+](=O)[O-])cc2[nH]1	15.2% (inactive)
COc1ccccc1-n1c(=O)[nH]c2c(C(N)=O)nc(C3CCCCC3)nc21	13.4% (inactive)
COc1ccc(-c2noc(CCC(N)=O)n2)cc1OC	16.5% (inactive)
CCc1ccc(CN(C)C(=O)c2cc(COc3c(F)cccc3F)on2)cc1	13% (inactive)
Cc1nc2oc(C(=O)c3ccccc3)c(N)c2c2c1COC(C)(C)C2	0.22% (inactive)
COC(=O)Cn1cnc2c1c(=O)n(C)c(=O)n2C	6.02% (inactive)
O=S(=O)(N1CCOCC1)N1CCN(c2ccccc2F)CC1	-1.16% (inactive)
COc1cccc(-c2cnc(NCc3cc(Cl)ccc3O)n2C)c1	3.22% (inactive)
Cn1nnnc1SCc1nnc(-c2ccc(Cl)cc2)o1	6.53% (inactive)
O=C(CCn1nnc2ccccc21)Nc1nnc(Cc2ccc(F)cc2)s1	5.36% (inactive)
Nn1c(CN2CCCCC2)nc2ccccc2c1=O	12.2% (inactive)
CCN1c2ccccc2-c2nc3ccccc3n2C1c1cccnc1 (configuration not stated)	1.05% (inactive)
COc1ccc(CNC(=O)c2ccc(NC(=O)CC3SC(N4CCCCC4)=NC3=O)cc2)cc1 (configuration not stated)	4.81% (inactive)
CN1CCCN(S(=O)(=O)c2cccc(Cl)c2Cl)CC1	-0.57% (inactive)
CCOC(=O)C[n+]1c(C)sc2ccc(OC)cc21	5.31% (inactive)
N/C(Cc1cccc2ccccc12)=N\OC(=O)c1ccc2c(c1)OCO2	6.4% (inactive)
Cc1cc(SCC(=O)c2cccs2)nc2ccccc12	8.62% (inactive)
O=S1(=O)CCC(NC(=S)N2CCCCCC2)C1 (configuration not stated)	18.2% (inactive)
CCC(=O)NC(c1ccc([N+](=O)[O-])cc1)c1c(O)ccc2ccccc12 (configuration not stated)	0.15% (inactive)
COc1ccc(/C(O)=C2/C(=O)C(=O)N(Cc3cccnc3)C2c2ccncc2)cc1F (configuration not stated)	19.1% (inactive)
O=C(CCc1ccccc1)Nc1ncc2c(n1)CCCC2=O	14.5% (inactive)

Source: PubChem BioAssay AID1288 (Columbia University Molecular Screening Center, 2008)
